According to PubChem BioAssay AID1195 (EPA DSSTox, 2008):

System: human maximum recommended daily dose, FDA database
Experiment: DSSTox (FDAMDD) FDA Maximum (Recommended) Daily Dose Database
Details: hits give low values
Text: The Food and Drug Administration (FDA) Center for Drug Evaluation and Research, Office of Pharmaceutical Science, Informatics and Computational Safety Analysis Staff's Maximum Recommended Daily Dose (FDAMDD) database contains values for over 1200 pharmaceuticals listed in Martindale: The Extra Pharmacopoeia (1973, 1983, and 1993) and The Physicians' Desk Reference (1995 and 1999). Some classes of chemicals were excluded from the FDAMDD database due to their unsuitability for most QSAR modeling programs. These were inorganic chemicals, high molecular weight polymers (>5000 Daltons), fibers, salts, mixtures of organic chemicals, and small molecules (<100 Daltons). FDAMDD is the non-proprietary portion of the database that was used in the QSAR analysis reported in the Main Citation. DSSTox FDAMDD has fewer substance records than the original MRDD Source database due to consolidation of partial structures (i.e., complexed entities) into a single record and elimination of duplicate entries. DSSTox FDAMDD also differs from the MRDD Source database in presenting complete structural information pertaining to the actual salt or complexed form corresponding to the listed ChemicalName and CASRN. According to the Source authors, there are a number of cases where multiple related forms or derivatives of a drug were listed as separate records but were assumed to fall under the same clinical toxicity assessment and, therefore, assigned the same Dose_MRDD_mg activity value. For the DSSTox FDAMDD, we have labeled these derivatives in the ChemClass_MRDD_grouping field and provide their counts in the ChemicalReplicateCount field to highlight their special nature.
Maximum recommended daily dose (or maximum recommended therapeutic dose) values were determined from pharmaceutical clinical trials that employed an oral route of exposure and daily treatments, usually for 3-12 months. Drugs were given as single or divided dose treatment regimens to achieve desired pharmacological effects. Roughly 5% of the pharmaceuticals in the FDAMDD data file were antineoplastics and anesthetics and were administered intravenously and/or intramuscularly. When separate MRDDs were reported for different routes of exposure, only the oral MRDD was included in the data file and only MRDD values reported for the average adult patient were used. Pharmaceuticals that are administered orally are usually tested over a limited range of doses and have MRDDs reported as mg/day. The mg/day unit was converted to mg/kg-body weight (bw)/day based upon an average adult weighing 60 kg. In contrast, the dose unit for most antineoplastic drug MRDDs is reported as mg/m2 which was converted to mg/kg-bw/day using the formula mg/kg-bw/day = mg/m2/37 for an average adult. Additionally, a few drugs had MRDDs reported in parts per million (ppm) which were converted to mg/kg-bw/day on the basis that 1000 ppm equals 25 mg/kg-bw/day for an average 60 kg adult. Activity Score is mapping of LOG10(1/Dose_MRDD_mmol) spanning activity range [MIN, MAX] onto Integer 1-100 Activity range, where 100 is highest potency and 1 is lowest potency: ActivityScore = 100 * INTEGER[(LOGINV_MRDD_mmol - MIN)/(MAX […] MIN)]. Activity Outcome is "active" for all substances, since Dose_MRDD_mmol is reported for all substances.

[1] = TherapeuticCategory: antibacterial
[2] = TherapeuticCategory: antihypertensive, antianginal, antiarrhythmic, antiglaucomic
[3] = TherapeuticCategory: antihistaminic
[4] = TherapeuticCategory: anticholinergic

Q: CCOc1ccc2ccccc2c1C(=O)N[C@@H]1C(=O)N2[C@@H]1SC(C)(C)[C@@H]2C(=O)O was tested. Which maximum recommended daily dose (mmol/kg-bw/day) [1] did it give?
A: 0.241

Q: CCN1CCN(C(=O)N[C@@H](C(=O)N[C@@H]2C(=O)N3[C@@H]2SC(C)(C)[C@@H]3C(=O)O)c2ccccc2)C(=O)C1=O was tested. Which maximum recommended daily dose (mmol/kg-bw/day) [1] did it give?
A: 0.773

Q: With C[C@@H](O)[C@H]1C(=O)N2C(C(=O)O)=C(SCCN=CN)C[C@H]12 as the compound, how does the maximum recommended daily dose (mmol/kg-bw/day) [1] read?
A: 0.223

Q: With CCCCC(C(=O)O)C(=O)N(Nc1ccccc1)c1ccccc1 (stereo unspecified) as the compound, how does the maximum recommended daily dose (mmol/kg-bw/day) (TherapeuticCategory: analgesic, antipyretic, anti inflammatory) read?
A: 0.0337

Q: N[C@@H]1[C@@H](O)[C@H](O)[C@@H](CO)O[C@H]1O was tested. Which maximum recommended daily dose (mmol/kg-bw/day) (TherapeuticCategory: antiarthritic) did it give?
A: 0.558

Q: Which maximum recommended daily dose (mmol/kg-bw/day) (TherapeuticCategory: choleretic) does the source give for C[C@H](CCC(=O)O)[C@H]1CC[C@H]2[C@@H]3C(=O)C[C@@H]4CC(=O)CC[C@]4(C)[C@H]3CC(=O)[C@]12C here?
A: 0.0932

Q: With CCC(c1ccc2cc(OC)ccc2c1)C(C)(C)C(=O)O (stereo unspecified) as the compound, how does the maximum recommended daily dose (mmol/kg-bw/day) (TherapeuticCategory: estrogen) read?
A: 0.000524

Q: For CCOC(C)=O, which maximum recommended daily dose (mmol/kg-bw/day) (TherapeuticCategory: none) is on record?
A: 0.284

Q: CN1CCN(CCCN2c3ccccc3Sc3ccc(Cl)cc32)CC1 was tested. Which maximum recommended daily dose (mmol/kg-bw/day) (TherapeuticCategory: antiemetic) did it give?
A: 0.00447

Q: CC[N+](CC)(CC)CCOc1cccc(OCC[N+](CC)(CC)CC)c1OCC[N+](CC)(CC)CC was tested. Which maximum recommended daily dose (mmol/kg-bw/day) (TherapeuticCategory: skeletal muscle relaxant) did it give?
A: 0.00224

Q: Which maximum recommended daily dose (mmol/kg-bw/day) [2] does the source give for CC(C)(C)NC[C@H](O)COc1nsnc1N1CCOCC1 here?
A: 0.00316

Q: CC(C)(C)c1ccc(C(O)CCCN2CCC(C(O)(c3ccccc3)c3ccccc3)CC2)cc1 (stereo unspecified) was tested. Which maximum recommended daily dose (mmol/kg-bw/day) [3] did it give?
A: 0.00424

Q: Which maximum recommended daily dose (mmol/kg-bw/day) (TherapeuticCategory: antineoplastic) does the source give for COc1cc(NS(C)(=O)=O)ccc1Nc1c2ccccc2nc2ccccc12 here?
A: 0.00823

Q: With Nc1ccc(N=Nc2ccccc2)c(N)n1 as the compound, how does the maximum recommended daily dose (mmol/kg-bw/day) (TherapeuticCategory: analgesic) read?
A: 0.0313

Q: For CN(CCOc1ccc(CC2SC(=O)NC2=O)cc1)c1ccccn1 (stereo unspecified), which maximum recommended daily dose (mmol/kg-bw/day) (TherapeuticCategory: antidiabetic) is on record?
A: 0.000281

Q: How did the maximum recommended daily dose (mmol/kg-bw/day) [1] turn out when COc1cc(NS(=O)(=O)c2ccc(N)cc2)nc(OC)n1 was run?
A: 0.107

Q: How did the maximum recommended daily dose (mmol/kg-bw/day) (TherapeuticCategory: CNS stimulant, anorexic) turn out when CC(N)Cc1ccccc1 (stereo unspecified) was run?
A: 0.0074

Q: For CC(C)(C)NCC(O)CSc1nc(-c2ccc(C(N)=O)s2)cs1 (stereo unspecified), which maximum recommended daily dose (mmol/kg-bw/day) (TherapeuticCategory: antihypertensive, antianginal, antiarrhythmic) is on record?
A: 0.000896

Q: For CCCC(CCC)C(=O)OC1C[C@H]2CC[C@@H](C1)[N+]2(C)C (stereo partly specified), which maximum recommended daily dose (mmol/kg-bw/day) [4] is on record?
A: 0.0069

Q: Which maximum recommended daily dose (mmol/kg-bw/day) [3] does the source give for CN(C)CCN(Cc1cccs1)c1ccccn1 here?
A: 0.0255

Q: NC(=O)c1ccccc1O was tested. Which maximum recommended daily dose (mmol/kg-bw/day) (TherapeuticCategory: analgesic) did it give?
A: 0.316

Q: Which maximum recommended daily dose (mmol/kg-bw/day) [2] does the source give for CC(C)NCC(O)COc1cccc2[nH]ccc12 (stereo unspecified) here?
A: 0.00403

Q: CCN(CC)CCOC(=O)C(Cc1cccc2ccccc12)CC1CCCO1 (stereo unspecified) was tested. Which maximum recommended daily dose (mmol/kg-bw/day) (TherapeuticCategory: vasodilator) did it give?
A: 0.0261

Q: How did the maximum recommended daily dose (mmol/kg-bw/day) (TherapeuticCategory: antipsychotic) turn out when CCCC(=O)c1ccc2c(c1)N(CCCN1CCN(C)CC1)c1ccccc1S2 was run?
A: 0.00408

Q: How did the maximum recommended daily dose (mmol/kg-bw/day) [1] turn out when CCn1cc(C(=O)O)c(=O)c2cc3c(cc21)OCO3 was run?
A: 0.0957

Q: With COc1cc(C[C@@H]2c3c(cc(OC)c(OC)c3OC)CC[N@@+]2(C)CCCOC(=O)CCC(=O)OCCC[N@@+]2(C)CCc3cc(OC)c(OC)c(OC)c3[C@@H]2Cc2cc(OC)c(OC)c(OC)c2)cc(OC)c1OC as the compound, how does the maximum recommended daily dose (mmol/kg-bw/day) (TherapeuticCategory: skeletal muscle relaxant, neuromuscular blocker) read?
A: 4.52e-05

Q: CCOC(=O)c1c(C)cc2c(CO)n[nH]c(=O)c2c1C was tested. Which maximum recommended daily dose (mmol/kg-bw/day) (TherapeuticCategory: phosphodiesterase inhibitor) did it give?
A: 0.724

Q: CNS(=O)(=O)CCc1ccc2[nH]cc(C3CCN(C)CC3)c2c1 was tested. Which maximum recommended daily dose (mmol/kg-bw/day) (TherapeuticCategory: antimigraine, vasoconstrictor) did it give?
A: 0.000248

Q: CC(C)[N+](C)(CCC(C(N)=O)(c1ccccc1)c1ccccc1)C(C)C was tested. Which maximum recommended daily dose (mmol/kg-bw/day) [4] did it give?
A: 0.000472

Q: Which maximum recommended daily dose (mmol/kg-bw/day) (TherapeuticCategory: anxiolytic, anticonvulsant) does the source give for CC(C)(O)C(C)(O)c1ccc(Cl)cc1 (stereo unspecified) here?
A: 0.0932

Q: CNC[C@H](O)[C@@H](O)[C@H](O)[C@H](O)CO was tested. Which maximum recommended daily dose (mmol/kg-bw/day) (TherapeuticCategory: diagnostic aid) did it give?
A: 0.512
